The values below are quoted from earlier work in US20090275622A1, “NIZATIDINE FORMULATIONS” (priority 2008, published 2009).

Structures are written as SMILES.

For this data set the following is noted: crystalline solid.

Turning to `CN/C(=C\[N+](=O)[O-])NCCSCc1csc(CN(C)C)n1` [Nizatidine, N-[2-[[[2-[(dimethylamino)methyl]-4-thiazolyl]methyl]thio]ethyl]-N′-methyl-2-nitro-1,1-ethenediamine], the Solubility in water result was “soluble in water”.
